Experiments:
[1] = Reducing power antioxidant assay; conditions: compared to SDG
Procedure: The antioxidant activity SDG was determined by assessing its reducing power, an activity related to its ability to reduce an oxidized atom or molecule and compared with that of the natural antioxidants ascorbic acid and alpha-tocopherol (Panel A).

[2] = test system: primary rat cortical neurons; experiment: MAP2 cell-based ELISA of neuronal death and damage after ART compounds
Procedure: (§1) Relative neuronal damage as indicated by MAP2 cell-based ELISA in neurons treated with the indicated concentrations of ART compounds, ritonavir (RIT), Saquinavir (Sag), and Zidovudine (AZT). Cells were treated for 72 hours with ritonavir (10 μM or 25 μM), ritonavir (10 μM)+Saquinivir (1 μM), AZT (25 μM)+ritonavir+Saquinavir. One hour before and two hours after cART drug treatment, half of the wells of a 96 well plate of neuroglial cultures were also treated with secoisolariciresinol diglucoside (SDG) (25 μM, 50 μM, or 100 μM) where indicated. 72 hours later, a MAP2 cell-based ELISA assay was used to quantify neuronal death and damage. Untreated cultures in addition to vehicle (0.08% DMSO) treated cultures with and without SDG were used as controls. The value for untreated cultures was set to 100%, and SDG and cART treated bands are expressed as a percent change from untreated.
as §1, with “Cells” for “Relative neuronal damage as indicated by MAP2 cell-based ELISA in neurons treated with the indicated concentrations of ART compounds, ritonavir (RIT), Saquinavir (Sag), and Zidovudine (AZT). Cells”, “SDG” for “secoisolariciresinol diglucoside (SDG)”, “μM).” for “μM) where indicated.”

HIV-1 jago [3] = experiment: HIV replication in monocyte-derived macrophages (RT activity, p24); assay type: cell-based; conditions: for viral replication as indicated by RT activity / viral replication as indicated by p24 concentrations: primary human MDMs, 9 days post-infection, ritonavir 0.1 μM, SDG 50 μM
Procedure: Primary human MDMs were infected with an HIV isolated from the CSF of a patient with confirmed HAND yielding robust reverse transcriptase activity (A) and p24 concentrations (B) after 9 days post-infection. […] Results have been confirmed in 2 distinct donors, 1 donor is shown. Three technical replicates are analyzed for RT assays (n=3, * p<0.0001).
(§2) PBMCs can be prepared from laboratory donors. PBMCs are activated with […] phytohemagglutinin for 3 days, and infected with HIV-1 jago, a strain of HIV1 isolated from the CSF of a patient with HAD. On the day of infection, cultures is treated with SDG over a range of doses (0.1, 1, 10, 100 μM SDG), vehicle, or left untreated. Viral replication is assessed by p24 ELISA at 3, 6, 9, 12 and 15 days post-infection. Cell viability of infected PBMCs can be monitored by trypan blue exclusion and p24 levels are normalized to the number of viable cells. The experiment is repeated in 3 donors. MDMs can be prepared as described previously and infected with HIV-1 jago. On the day of inoculation with HIV-1 jago cultures can be treated with 0.1, 1, 10 and 100 μM SDG, vehicle or left untreated. Viral replication is assessed on days 3, 6, 9, 12, and 15 by p24 ELISA. Cell viability is determined by trypan blue exclusion and p24 levels is normalized to the number of viable cells. The experiment is replicated in 3 donors.
To assess this effect, primary peripheral blood monocytes were harvested from healthy donors and differentiated them into macrophages in vitro. Monocytes were infected with the primary HIV isolate, jago. One day after infection, macrophages were treated with 25 μM or 50 μM SDG, the antiretroviral compound ritonavir (0.1 μM RIT), SDG and ritonavir together, the ritonavir vehicle, DMSO, or with no additional treatment. Supernatant from these macrophages was harvested 3, 6, 9, 12, and 15 days post infection and assayed for HIV reverse transcriptase activity (FIG. 5A, bar graph and FIG. 5B, Line graph).

CXCR4 = experiment: Western blot of CXCR4 expression on MDM; assay type: cell-based
Procedure: (§3) The objective of this study was to elucidate the modulatory effects of flaxseed lignans on macrophage expression of coreceptors through western blotting.
Expression of HIV coreceptor CXCR4 on macrophage derived monocytes treated with SDG was evaluated. Following the same treatment protocol, MDM were treated with SDG for 0 and 6 hours. […] 25 μM to the 25 μM SDG treatment.

cortical rat neurons = experiment: Neurotoxicity and oxidative stress (MAP2, DHE) from HIV-infected macrophage supernatants; assay type: cell-based
Procedure: Neurons (green) were pre-treated with 50 μM SDG 1 hour prior to exposure to HIV-infected macrophage supernatants (HIVMDM) at dilutions of 1:40 and 1:80. In the absence of SDG, there is marked reduction in MAP2 immunostaining (green) indicating neuronal damage and death (A). Labeling with dihydroethidium (red) indicates the presence of oxidative stress, which is apparent in HIVMDM treated cultures. Nuclei are labeled blue by DAPI. […] MAP2 levels are quantified in top graph (# p<0.01 compared to UT, * p<0.05 compared to respective HIV MDM). Oxidative stress (red-DHE) is quantified in bottom graph (# p<0.001, compared to HIVMDM1:40, p<0.05, compared to HIVMDM1:80, $ p<0.01 compared with UT.
Primary rat neuroglial cultures (FIG. 10, Panel A) and primary rat neuronal cultures (FIG. 10, Panel B) were treated with Supernatants from HIV-Infected macrophages (Jago) or Mock-infected macrophages (Mock) for 24 hours in the presence or absence of 25 or 50 μM SDG given 60 minutes prior to addition of the HIVMDM. Prior to fixation, cells were incubated with Dihydroethidium (DHE-red) for 30 minutes. Following fixation cells were stained for the neuronal specific marker MAP2 (green) and DAPI (blue). Representative images for each treatment are shown. DHE Fluorescence intensity was quantified from 6 fields for 3 slides per treatment, averaged, and normalized to the area of DAPI. Graphs of the average DHE staining intensity/DAPI area are plotted for each treatment group. The p values were generated using student's two-tailed t-test for equal variance. Bars on graphs represent median values of quantification by ImageJ algorithm. *P<0.05 vs Untreated (UT)-control group and Mock-control group; #P<0.05 vs Jago 1:40 treatment group. The results were obtained from at least three independent experiments.

rat neuronal cultures = experiment: MTT viability, indirect treatment (media from SDG-treated macrophages); assay type: cell-based; conditions: media from HIV-1 or Mock infected macrophages treated with SDG, 24 hours
Procedure: We performed a MTT (3-(4,5-dimethylthiazol-2-yl)-2,5-diphenyltetrazolium bromide) assay to measure the viability of cells through the production of insoluble formazan. […]. In these indirect studies media from HIV-1 infected or Mock infected macrophages treated with SDG was applied to neuronal cultures for 24 hours. Afterward cell viability was determined by the MTT assay which […] and is an indicator of mitochondrial activity. […] This study is a clear indicator of the non-neurotoxic effects of SDG in vitro.

HIV-1 jago [4] = experiment: HIV replication in PBMCs (p24 ELISA); assay type: cell-based; conditions: dose dependent manner; 0.1, 1, 10, 100 μM SDG
Procedure: as §2

[5] = at least 500 mg SDG/day for approximately 8 weeks; cited from earlier work
CCR5 = experiment: Western blot of CCR5 expression on MDM; assay type: cell-based; conditions: SDG for 0 and 6 hours, time-dependent
Procedure: as §3
Expression of HIV co-receptor CCR5 on macrophage derived monocytes treated with SDG was evaluated. Following the same treatment protocol, MDM were treated with SDG for 0 and 6 hours.

Nrf2/ARE = Nrf2/ARE activation in non-neuronal cell types; assay type: cell-based; conditions: lung epithelial, endothelial and fibroblasts
[6] = DPPH free radical scavenging activity; conditions: compared to ascorbic acid and alpha-tocopherol
[7] = test system: brain derived neurotrophic factor (BDNF); conditions: SDG by oral gavage; cited from earlier work
[8] = test system: rat cortical neuroglial cultures; experiment: MTT viability, direct SDG treatment; assay type: cell-based; conditions: 24 hours with SDG
Procedure: In order to assess the effects on SDG in terms of mitochondrial respiration as an indicator of viability, an MTT assay was performed with rat cortical neuroglial cultures that were treated for 24 hours with SDG.

[9] = test system: nrf2-regulated protective enzymes; experiment: qRT-PCR of antioxidant enzyme gene expression in brain tissues after oral SDG; assay type: in vivo, mice
Procedure: Indeed, the 1.0 mg dose was associated with a near 2-fold boost of hemeoxygenase 1 expression (HO-1) and quinone oxidoreductase 1 (NQO-1) expression in brain tissues (FIG. 14, Panel B).

[10] = SDG by oral gavage; cited from earlier work
Nrf2 = experiment: Endogenous antioxidant response expression by qRT-PCR and immunoblot; assay type: cell-based; conditions: primary rat cortical neurons, SDG 50 μM, 2 or 48 hours
Procedure: Specifically, protein and RNA from primary rat cortical neurons treated with SDG at 50 μM or left untreated for 2 or 48 hours were analyzed for changes in expression of the endogenous antioxidant response by qRT-PCR and immunoblot.
Protein and RNA from primary rat cortical neurons treated with SDG at 50 μM or left untreated for 2 or 48 hours were analyzed for changes in expression of the endogenous antioxidant response by qRT-PCR and immunoblot.

[11] = 50 μM SDG 1 hour prior to HIVMDM 1:40 and 1:80
[12] = 1.0 mg SDG oral gavage once daily for 4 days, 4 hours post final feeding

## Cc1c(C)c2c(c(C)c1O)CC[C@@](C)(CCC[C@H](C)CCC[C@H](C)CCCC(C)C)O2 [A-toc, alpha-tocopherol]
[1]
  concentration needed for half-maximal response (EC50) in reducing power, relative to SDG: ~3 fold

## CC(C)(C)NC(=O)[C@@H]1C[C@@H]2CCCC[C@@H]2CN1C[C@@H](O)[C@H](Cc1ccccc1)NC(=O)[C@H](CC(N)=O)NC(=O)c1ccc2ccccc2n1 [saquinavir, reference compound]
[2]; ART compounds alone and in combinations, 72 hours
  neuronal damage as indicated by loss of MAP2 staining: significant neuronal damage

## O=C1O[C@H]([C@@H](O)CO)C(O)=C1O [AA, ascorbic acid]
[1]
  concentration needed for half-maximal response (EC50) in reducing power, relative to SDG: ~3 fold

## CC(C)c1nc(CN(C)C(=O)N[C@H](C(=O)N[C@@H](Cc2ccccc2)C[C@H](O)[C@H](Cc2ccccc2)NC(=O)OCc2cncs2)C(C)C)cs1 [ritonavir, reference compound]
HIV-1 jago [3]
  viral replication as indicated by RT activity: attenuated viral replication
  viral replication as indicated by p24 concentrations: attenuated viral replication

## COc1cc(C[C@@H](CO[C@@H]2O[C@H](CO)[C@@H](O)[C@H](O)[C@H]2O)[C@H](CO[C@@H]2O[C@H](CO)[C@@H](O)[C@H](O)[C@H]2O)Cc2ccc(O)c(OC)c2)ccc1O [SDG, secoisolariciresinol diglucoside]
CXCR4; 12 hour time point, 6. 25 μM to 25 μM SDG
  HIV coreceptor CXCR4 expression on MDM, dose dependence: dose-dependent decrease
CXCR4; between the 0 and 6 hour time points, time-dependent
  HIV coreceptor CXCR4 expression on MDM: significant decrease
Cortical rat neurons; [11]
  neuron loss (MAP2 immunostaining): protected against neuron loss
  oxidative stress by DHE: reduced accumulation of oxidative stress
Cortical rat neurons; 25 or 50 μM SDG 60 minutes prior to HIVMDM, 24 hours, presence or absence of glia
  protection from HIV-stimulated macrophage-induced neurotoxicity: protects neurons
Cortical rat neurons; presence and absence of glia
  DHE staining (free radical production) in HIV-Jago-treated neurons: reduced DHE staining
Rat neuronal cultures
  neuronal cell viability (MTT), indirect treatment: no change in neuronal cell viability
HIV-1 jago [4]
  HIV replication in PBMCs: attenuates HIV replication
[5]
  effect on cardiovascular risk factors in humans: positive effect
CCR5
  HIV co-receptor CCR5 expression on MDM: significant decrease
Nrf2/ARE
  activation of Nrf2/ARE, inducing NQO1 and HO1: activates the Nrf2/ARE
[6]
  DPPH free radical scavenging activity: far superior antioxidant activity
[7]
  cortex levels of brain derived neurotrophic factor (BDNF): increase
[8]
  neuronal cell viability (MTT), direct treatment: no change in neuronal cell viability
[2]; 25 μM SDG 1 hour prior to ART compounds alone or in combination
  attenuation of neuronal damage in response to ART compounds: significantly attenuated neuronal damage
[2]; SDG at 25 and 50 μM
  reduction of ART-induced neuronal damage by combination therapy: reduced ART-induced neuronal damage
[9]; [12]
  hemeoxygenase 1 (HO-1) expression in brain tissues: ~2 fold
  quinone oxidoreductase 1 (NQO-1) expression in brain tissues: ~2 fold
[9]; SDG given orally to mice
  crossing of the blood-brain barrier: crosses the blood-brain barrier
HIV-1 jago [3]; 25 or 50 μM SDG with 0.1 μM ritonavir, 3-15 days post infection
  effect of SDG on ritonavir inhibition of HIV replication (reverse transcriptase activity): did not block the ability of ritonavir to inhibit HIV replication
HIV-1 jago [3]; 25 or 50 μM SDG, 3-15 days post infection
  HIV replication (reverse transcriptase activity), SDG without ritonavir: blocked HIV replication
HIV-1 jago [3]; FIG. 2
  viral replication in HIV-infected macrophages compared with ritonavir: reduced viral replication to levels akin to the HIV protease inhibitor, ritonavir
HIV-1 jago [3]; dose dependent manner, 0.1, 1, 10, 100 μM SDG
  HIV replication in MDMs: attenuates HIV replication
HIV-1 jago [3]
  viral replication as indicated by RT activity: attenuated viral replication
  viral replication as indicated by p24 concentrations: attenuated viral replication
[10]
  chronic stress as measured by immobility time induced by tail suspension stress: decreased chronic stress
Nrf2
  induction of Nrf2 and its targets HO1, NQO1, GST1: induced Nrf2 in neurons, as well as its prominent targets: HO1, NQO1, and GST1

Reference: US9987321B2, “Use of flaxseed and flaxseed derivatives for treatment of neurological disorders and viral diseases” (The Trustees of the University of Pennsylvania, priority 2012, dated 2018)
